# According to patent publication US20070265238A1, “METHOD FOR ACCELERATING REENTRAINMENT OF A CIRCADIAN RHYTHM” (priority 2006, published 2007):
# Tested on: body temperature rhythms
# Assay: Reentrainment of body temperature circadian rhythm after eastward jet travel across 6 time zones (Detroit to Vienna)
# Assay type: in vivo, human
# Conditions: applied beneath nostrils each morning on awakening; for length of time to reestablish stable body temperature rhythms: women, vs control vehicle (mineral oil and clove oil), FIG. 1
# Method: This experimental involved 15 subjects who were traveling from Detroit, Michigan to Vienna, Austria by air, a journey which spanned 6 time zones. The subjects comprised 8 women and 5 men aged 18-19 and 2 women […]. Two groups of compositions were prepared. The first comprised an experimental formulation containing 20 micrograms of 4,16-androstadien-3-one dissolved in a mixture of mineral oil and clove oil. A second composition comprising a control/placebo consisted of the mineral oil and clove oil. The 2 compositions were each packaged in 5 ml and supplied to selected test subjects along with cotton-tipped applicators. The test and control materials were randomly distributed, and participants were unaware of which composition they had obtained.
# Upon arrival in Vienna, each participant was directed to place a small amount of their particular composition directly beneath their nostrils with a new cotton applicator immediately upon awakening each morning. The participants were directed to allow the compositions to remain on their skin for at least an hour.
# External temperature monitors (iButton, Inc., Pittsburgh, Pa.) were affixed to each of the subjects with a gauze protective layer between the skin and the monitoring device. The monitors were covered with neoprene material for insulation against environmental temperature interference and held in place with a waterproof medical bandage which was changed every 3 days or as necessary. The monitoring devices were set to acquire temperature every 10 minutes throughout the entire period of the experiment and for a 3-day period prior to travel. Participants also kept daily event logs to monitor the timing of activities that could influence temperature data such as sleep and wake times, showers, exercise and naps. […]
# Data were analyzed to determine the length of time needed for core temperature rhythms to reentrain with the new time schedule, returning to a phase angle of entrainment similar to that recorded before travel. […]
compound,measurement,setting,value
"C[C@@]12C=CC[C@H]1[C@@H]1CCC3=CC(=O)CC[C@]3(C)[C@H]1CC2 [4,16-androstadien-3-one]",reentrainment rate of body temperature rhythms,"men, vs control vehicle",no effects
same,length of time to reestablish stable body temperature rhythms,,accelerate reestablishment of body temperature rhythms
same,length of time to reestablish stable body temperature rhythms,listed as pheromone,reentrained significantly faster
